Experimental data: PMC5379193, “Pathogen recognition of a novel C-type lectin from Marsupenaeus japonicus reveals the divergent sugar-binding specificity of QAP motif” (Scientific Reports, 2017)
Values after ≈ are worked out from the molar mass of the structure shown.

What follows are compounds tested against T1, MjGCTL (rMjGCTL) (Penaeus japonicus, UniProt A0A1L7MZX5) (assay: inhibition of bacterial agglutination by purified rMjGCTL). Settings: V. parahaemolyticus named for Man/Gal/Glc; TBS with 10 mM CaCl2, pH 7, 25 °C; 1 h preincubation; Ca2+-dependent.
T1 construct: gene GCTL; secreted from Drosophila S2 cells (pMT/BiP/V5-His C), V5 and His tags kept, Ni-NTA purified; ~50 kDa, glycosylated; ORF 311 aa, 35 kDa predicted; LDLa domain plus CRD (QAP motif)
T1 sequence (A0A1L7MZX5 17-311): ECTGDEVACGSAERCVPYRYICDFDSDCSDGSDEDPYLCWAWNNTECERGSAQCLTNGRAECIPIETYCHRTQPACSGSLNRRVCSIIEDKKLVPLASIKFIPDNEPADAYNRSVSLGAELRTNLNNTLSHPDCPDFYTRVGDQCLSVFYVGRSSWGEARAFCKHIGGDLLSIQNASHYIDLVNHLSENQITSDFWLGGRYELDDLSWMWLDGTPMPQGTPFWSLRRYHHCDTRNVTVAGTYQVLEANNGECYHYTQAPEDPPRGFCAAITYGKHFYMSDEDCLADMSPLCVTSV
Assay type: biochemical
Excerpt: inhibition of bacterial agglutination by purified rMjGCTL on MjGCTL (rMjGCTL)

SMILES	Minimum inhibitory concentration
OC[C@H]1O[C@H](O[C@H]2[C@H](O)[C@@H](O)C(O)O[C@@H]2CO)[C@H](O)[C@@H](O)[C@@H]1O (stereo partly drawn) [Maltose]	125 mM (≈ 42.8 mg/mL)
OC1OC[C@@H](O)[C@H](O)[C@H]1O (stereo partly drawn) [Xylose]	62.5 mM (≈ 9.38 mg/mL)
OC[C@H]1OC(O)[C@H](O)[C@@H](O)[C@@H]1O (stereo partly drawn) [D-glucose]	100 mM (≈ 18 mg/mL)
C[C@@H]1OC(O)[C@@H](O)[C@H](O)[C@@H]1O (stereo partly drawn) [Fucose]	250 mM (≈ 41 mg/mL)
CC(=O)N[C@H]1C(O)O[C@H](CO)[C@@H](O)[C@@H]1O (stereo partly drawn) [N-Acetyl-D-glucosamine]	250 mM (≈ 55.3 mg/mL)
OC[C@H]1O[C@@H](O[C@H]2[C@H](O)[C@@H](O)C(O)O[C@@H]2CO)[C@H](O)[C@@H](O)[C@H]1O (stereo partly drawn) [Lactose]	250 mM (≈ 85.6 mg/mL)
